#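 Exposure lasted 48 hours, with cells grown in 96-well plates and compounds tested at five concentrations. GI50: concentration for 50% inhibition of growth. TGI: concentration producing complete growth inhibition.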
# Key:
# Assay in all cases: NCI anticancer screen, dose series, 48 h
# [1] = tested on: K-562 leukemia
# [2] = tested on: OVCAR-8 ovarian
# [3] = tested on: A498 renal
# [4] = tested on: COLO 205 colon
# [5] = tested on: MCF7 breast
# [6] = tested on: SF-539 CNS
# [7] = tested on: SR leukemia
# [8] = tested on: OVCAR-5 ovarian
# [9] = tested on: T-47D breast
# [10] = tested on: LOX IMVI melanoma
# [11] = tested on: SNB-19 CNS
# [12] = tested on: OVCAR-4 ovarian
# [13] = tested on: HCT-15 colon
# [14] = tested on: PC-3 prostate
# [15] = tested on: NCI-H460 lung
# [16] = tested on: MALME-3M melanoma
# [17] = tested on: NCI-H23 lung
# [18] = tested on: OVCAR-3 ovarian
# [19] = tested on: UO-31 renal
# [20] = tested on: SK-MEL-5 melanoma
# [21] = tested on: KM12 colon
# [22] = tested on: DU-145 prostate
# [23] = tested on: SF-295 CNS
# [24] = tested on: 786-0 renal
# [25] = tested on: IGROV1 ovarian
# [26] = tested on: HCT-116 colon
# [27] = tested on: SK-MEL-2 melanoma
# [28] = tested on: HCC-2998 colon
# [29] = tested on: RXF 393 renal
# [30] = tested on: MOLT-4 leukemia
# [31] = tested on: NCI-H226 lung
# [32] = tested on: HOP-62 NSCLC
# [33] = tested on: MDA-MB-231 breast
# [34] = tested on: NCI-H522 lung
# [35] = tested on: HS 578T breast
# [36] = tested on: SF-268 CNS
# [37] = tested on: EKVX NSCLC
# [38] = tested on: MDA-MB-435
# [39] = tested on: RPMI-8226 leukemia
# [40] = tested on: SK-OV-3 ovarian
# [41] = tested on: HT29 colon
# [42] = tested on: UACC-62 melanoma
# [43] = tested on: SN12C renal
# [44] = tested on: ACHN renal
# [45] = tested on: CCRF-CEM leukemia
# [46] = tested on: UACC-257 melanoma
# [47] = tested on: SNB-75 CNS
# [48] = tested on: A549 NSCLC
# [49] = tested on: U251 CNS
# [50] = tested on: HL-60(TB) leukemia
# [51] = tested on: SK-MEL-28 melanoma
# [52] = tested on: SW-620 colon
# [53] = tested on: M14 melanoma
# [54] = tested on: TK-10 renal
# [55] = tested on: CAKI-1 renal
# [56] = tested on: NCI/ADR-RES ovarian
# [57] = tested on: BT-549 breast
# [58] = tested on: HOP-92 NSCLC
smiles,measurement,setting,value
C#CC[C@@H]1C[C@]2(C)[C@H]3CC=C4[C@H]5[C@@H](C)[C@H](C)CC[C@]5(C(=O)NCCCCCCCCN)CC[C@@]4(C)[C@]3(C)CC[C@H]2C(C)(C)[C@H]1OC(C)=O,GI50,[1],2.02 µM
same,TGI,[1],5.69 µM
same,GI50,[2],2.15 µM
same,TGI,[2],5.01 µM
same,GI50,[3],1.78 µM
same,TGI,[3],3.21 µM
[N-]=[N+]=NCCCn1c2c(c3ccc([N+](=O)[O-])cc3c1=O)C(=O)c1cc(I)ccc1-2,GI50,[4],40.4 µM
same,TGI,[4],> 100 µM
same,GI50,[5],0.586 µM
same,TGI,[5],> 100 µM
same,GI50,[6],2.23 µM
same,TGI,[6],8.51 µM
same,GI50,[7],0.344 µM
same,TGI,[7],2.87 µM
same,GI50,[8],41.2 µM
same,TGI,[8],> 100 µM
same,GI50,[9],3.87 µM
same,TGI,[9],> 100 µM
same,GI50,[10],3.75 µM
same,TGI,[10],33 µM
same,GI50,[11],4.62 µM
same,TGI,[11],> 100 µM
same,GI50,[12],60 µM
same,TGI,[12],> 100 µM
same,GI50,[13],18.5 µM
same,TGI,[13],> 100 µM
same,GI50,[14],11 µM
same,TGI,[14],> 100 µM
same,GI50,[15],0.449 µM
same,TGI,[15],11.6 µM
same,GI50,[16],12.5 µM
same,TGI,[16],77 µM
same,GI50,[17],5.41 µM
same,TGI,[17],55.7 µM
same,GI50,[18],18.3 µM
same,TGI,[18],> 100 µM
same,GI50,[19],3.82 µM
same,TGI,[19],45.6 µM
same,GI50,[20],3.77 µM
same,TGI,[20],15.5 µM
same,GI50,[21],18 µM
same,TGI,[21],> 100 µM
same,GI50,[1],5.15 µM
same,TGI,[1],> 100 µM
same,GI50,[22],1.78 µM
same,TGI,[22],6.95 µM
same,GI50,[23],1.54 µM
same,TGI,[23],> 100 µM
same,GI50,[24],3.17 µM
same,TGI,[24],16 µM
same,GI50,[25],1.95 µM
same,TGI,[25],65.5 µM
same,GI50,[26],2.15 µM
same,TGI,[26],26.4 µM
same,GI50,[27],71.2 µM
same,TGI,[27],> 100 µM
same,GI50,[28],11.7 µM
same,TGI,[28],59.3 µM
same,GI50,[29],12.5 µM
same,TGI,[29],62.8 µM
same,GI50,[30],0.833 µM
same,TGI,[30],5.08 µM
same,GI50,[31],14.3 µM
same,TGI,[31],> 100 µM
same,GI50,[32],1.82 µM
same,TGI,[32],38.8 µM
same,GI50,[2],11.3 µM
same,TGI,[2],> 100 µM
same,GI50,[33],> 100 µM
same,TGI,[33],> 100 µM
same,GI50,[34],1.68 µM
same,TGI,[34],12.4 µM
same,GI50,[3],6.52 µM
same,TGI,[3],28.5 µM
same,GI50,[35],28 µM
same,TGI,[35],> 100 µM
same,GI50,[36],2.58 µM
same,TGI,[36],> 100 µM
same,GI50,[37],22 µM
same,TGI,[37],> 100 µM
same,GI50,[38],34.3 µM
same,TGI,[38],> 100 µM
same,GI50,[39],2.17 µM
same,TGI,[39],59.6 µM
same,GI50,[40],2.11 µM
same,TGI,[40],8.74 µM
same,GI50,[41],10.7 µM
same,TGI,[41],> 100 µM
same,GI50,[42],3.33 µM
same,TGI,[42],18.3 µM
same,GI50,[43],3.89 µM
same,TGI,[43],> 100 µM
same,GI50,[44],2.25 µM
same,TGI,[44],7.5 µM
same,GI50,[45],0.416 µM
same,TGI,[45],> 100 µM
same,GI50,[46],26.7 µM
same,TGI,[46],> 100 µM
same,GI50,[47],8.63 µM
same,TGI,[47],> 100 µM
same,GI50,[48],8.06 µM
same,TGI,[48],> 100 µM
same,GI50,[49],2.23 µM
same,TGI,[49],30.6 µM
same,GI50,[50],3.79 µM
same,TGI,[50],26.3 µM
same,GI50,[51],41.5 µM
same,TGI,[51],> 100 µM
same,GI50,[52],1.72 µM
same,TGI,[52],> 100 µM
same,GI50,[53],3.29 µM
same,TGI,[53],22.4 µM
same,GI50,[54],71.9 µM
same,TGI,[54],> 100 µM
same,GI50,[55],9.38 µM
same,TGI,[55],> 100 µM
same,GI50,[56],4.17 µM
same,TGI,[56],46.6 µM
Fc1ccc(Oc2nc3ccccc3nc2-c2ccccc2)cc1,TGI,[4],> 100 µM
same,TGI,[5],> 100 µM
same,TGI,[7],> 100 µM
same,TGI,[8],> 100 µM
same,TGI,[57],> 100 µM
same,TGI,[10],> 100 µM
same,TGI,[11],> 100 µM
same,TGI,[12],> 100 µM
same,TGI,[13],> 100 µM
same,TGI,[14],> 100 µM
same,TGI,[15],> 100 µM
same,TGI,[16],> 100 µM
same,TGI,[17],> 100 µM
same,TGI,[18],> 100 µM
same,TGI,[19],> 100 µM
same,TGI,[20],> 100 µM
same,TGI,[21],> 100 µM
same,TGI,[1],> 100 µM
same,TGI,[22],> 100 µM
same,TGI,[23],> 100 µM
same,TGI,[24],> 100 µM
same,TGI,[25],> 100 µM
same,TGI,[26],> 100 µM
same,TGI,[27],> 100 µM
same,TGI,[28],> 100 µM
same,TGI,[29],> 100 µM
same,TGI,[30],> 100 µM
same,TGI,[31],> 100 µM
same,TGI,[32],> 100 µM
same,TGI,[33],> 100 µM
same,TGI,[34],> 100 µM
same,TGI,[3],> 100 µM
same,TGI,[35],> 100 µM
same,TGI,[36],> 100 µM
same,TGI,[37],> 100 µM
same,TGI,[38],> 100 µM
same,TGI,[39],> 100 µM
same,TGI,[40],> 100 µM
same,TGI,[41],> 100 µM
same,TGI,[42],> 100 µM
same,TGI,[58],> 100 µM
same,TGI,[43],> 100 µM
same,TGI,[44],> 100 µM
same,TGI,[45],> 100 µM
same,TGI,[46],> 100 µM
same,TGI,[49],> 100 µM
same,TGI,[50],> 100 µM
same,TGI,[51],> 100 µM
same,TGI,[52],> 100 µM
same,TGI,[54],> 100 µM
same,TGI,[55],> 100 µM

# — PubChem BioAssay (NCI)
